Measured values taken from patent US8106055B2, “Substituted amide compounds” (Gruenenthal GmbH, priority 2007, dated 2012).

Assays:
human μ opiate receptor = biological target: T1, human μ opiate receptor (Homo sapiens, UniProt P35372); experiment: Affinity for the human μ opiate receptor ([3H]-naloxone displacement, CHO-K1 receptor membrane preparation, SPA); type: binding; conditions: test concentration of 1 μM
T1 construct: purchased PerkinElmer Life Sciences, Zaventem, Belgium RB-HOM; host or cells: CHO-K1 cells (membrane preparation)
Summary of the method: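 Scintillation proximity binding on human μ receptor membranes from CHO-K1 cells used 1 nmol/l [3H]-naloxone over 90 min at room temperature in 50 mmol/l Tris-HCl, 0.06% BSA. Percent inhibition was recorded at 1 μM.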

[1] = biological target: T2, serotonin (5-HT) reuptake (Rattus norvegicus, UniProt P31652); experiment: Inhibition of serotonin (5HT) reuptake in synaptosomes from rat brain; type: biochemical; conditions: test concentration of 10 μM
T2 construct: synaptosomes are freshly isolated from areas of the rat brain; from tissue; host or cells: rat brain synaptosomes (P2 fraction)
Summary of the method: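 Freshly isolated rat brain synaptosomes (P2 fraction) used for 5-HT reuptake. Test compound at 10 μM, activity given as % inhibition.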

T1 sequence (P35372 whole entry): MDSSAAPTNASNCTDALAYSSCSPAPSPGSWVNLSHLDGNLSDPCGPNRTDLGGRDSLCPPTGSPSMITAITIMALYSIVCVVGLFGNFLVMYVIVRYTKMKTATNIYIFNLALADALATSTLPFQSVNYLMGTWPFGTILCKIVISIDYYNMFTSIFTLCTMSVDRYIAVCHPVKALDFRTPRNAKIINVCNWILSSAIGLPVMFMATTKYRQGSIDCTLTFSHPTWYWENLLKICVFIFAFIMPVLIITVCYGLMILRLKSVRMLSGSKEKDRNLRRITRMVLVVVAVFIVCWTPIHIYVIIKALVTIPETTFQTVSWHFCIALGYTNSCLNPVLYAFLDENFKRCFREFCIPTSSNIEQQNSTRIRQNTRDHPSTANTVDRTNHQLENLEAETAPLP
T2 sequence (P31652 whole entry): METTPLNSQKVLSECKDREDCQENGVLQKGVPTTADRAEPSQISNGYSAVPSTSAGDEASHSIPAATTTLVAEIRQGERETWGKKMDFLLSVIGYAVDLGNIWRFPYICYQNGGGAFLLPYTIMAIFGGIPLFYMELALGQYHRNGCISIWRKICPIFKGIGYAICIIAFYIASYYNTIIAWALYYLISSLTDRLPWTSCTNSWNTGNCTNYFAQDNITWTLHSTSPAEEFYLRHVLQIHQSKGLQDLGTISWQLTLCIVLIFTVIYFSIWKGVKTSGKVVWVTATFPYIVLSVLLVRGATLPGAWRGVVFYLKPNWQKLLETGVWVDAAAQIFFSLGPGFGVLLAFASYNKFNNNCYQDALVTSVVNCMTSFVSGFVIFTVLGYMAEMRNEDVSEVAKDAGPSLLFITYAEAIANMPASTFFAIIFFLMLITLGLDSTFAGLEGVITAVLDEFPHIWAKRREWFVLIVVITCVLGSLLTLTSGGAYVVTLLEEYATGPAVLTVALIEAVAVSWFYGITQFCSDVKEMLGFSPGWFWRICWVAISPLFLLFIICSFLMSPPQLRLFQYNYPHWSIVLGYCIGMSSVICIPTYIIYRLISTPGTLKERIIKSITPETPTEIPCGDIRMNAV

SMILES	μ (binding on the μ opioid receptor, % inhibition) (human μ opiate receptor) [%]	5-HT (inhibition of reuptake of serotonin, % inhibition) [1] [%]
COc1ccc(S(=O)(=O)N2CCC(OCC(=O)NC3CCC(C(c4cccc(F)c4)N(C)C)CC3)C2)cc1OC (centres unmarked) [Example 323]	67	91
COc1ccc(S(=O)(=O)N(C)CCOCC(=O)NCC2CCC(C(c3ccc(Cl)cc3)N(C)C)CC2)cc1 (centres unmarked) [Example 324]	62	83
CN(C)C(c1cccc(F)c1)C1CCC(CCNC(=O)COCCN2CCN(S(=O)(=O)c3ccccc3)CC2)CC1 (centres unmarked) [Example 325]	68	96
CN(C)C(c1cccc(F)c1)C1CCC(CCNC(=O)COC2CCCN(S(=O)(=O)c3ccccc3)C2)CC1 (centres unmarked) [Example 326]	67	97
CCN(CCOCC(=O)NCC1CCC(C(c2ccc(F)cc2)N(C)C)CC1)S(=O)(=O)c1c(C)cc(OC)c(C)c1C (centres unmarked) [Example 327]	67	90
COc1ccc(S(=O)(=O)N2CCCCC2COCC(=O)NCC2CCC(C(c3cccc(F)c3)N(C)C)CC2)cc1OC (centres unmarked) [Example 329]	66	91
CN(C)C(c1ccc(F)cc1)C1CCC(NC(=O)COC2CCN(S(=O)(=O)c3cccc(C(F)(F)F)c3)C2)CC1 (centres unmarked) [Example 330]	54	90
CN(C)C(c1ccc(Cl)cc1)C1CCC(CNC(=O)COC2CCN(S(=O)(=O)c3cccc(C(F)(F)F)c3)C2)CC1 (centres unmarked) [Example 331]	61	84
Cc1cc(C)c(S(=O)(=O)N2CCC(OCC(=O)NC3CCC(C(c4ccc(F)cc4)N(C)C)CC3)C2)c(C)c1 (centres unmarked) [Example 332]	58	88
CN(C)C(c1cccc(F)c1)C1CCC(CNC(=O)COCCC2CCN(S(=O)(=O)c3ccccc3)CC2)CC1 (centres unmarked) [Example 333]	65	84
CN(C)C(c1ccc(F)cc1)C1CCC(CNC(=O)COCCN(C)S(=O)(=O)c2c(Cl)cccc2Cl)CC1 (centres unmarked) [Example 334]	66	83
CN(C)C(c1cccc(F)c1)C1CCC(NC(=O)COC2CCN(S(=O)(=O)c3ccccc3)CC2)CC1 (centres unmarked) [Example 335]	58	93
CN(C)C(c1ccc(F)cc1)C1CCC(NC(=O)COCCN(Cc2ccccc2)S(=O)(=O)c2ccccc2)CC1 (centres unmarked) [Example 336]	59	96
CN(C)C(c1ccc(F)cc1)C1CCC(CCNC(=O)COCC2CCCCN2S(=O)(=O)c2ccc(Cl)c(Cl)c2)CC1 (centres unmarked) [Example 337]	64	96
COc1ccc(S(=O)(=O)N2CCC(OCC(=O)NCCC3CCC(C(c4ccc(Cl)cc4)N(C)C)CC3)C2)cc1OC (centres unmarked) [Example 338]	69	86
COc1ccc(S(=O)(=O)N(C)CCOCC(=O)NCCC2CCC(C(c3ccc(Cl)cc3)N(C)C)CC2)cc1OC (centres unmarked) [Example 339]	63	78
COc1ccc(S(=O)(=O)N(C)CCOCC(=O)NCC2CCC(C(c3cccc(F)c3)N(C)C)CC2)cc1 (centres unmarked) [Example 340]	69	81
CN(C)C(c1cccs1)C1CCC(NC(=O)COCCN2CCN(S(=O)(=O)c3ccccc3)CC2)CC1 (centres unmarked) [Example 341]	64	85
CN(C)C(c1ccc(F)cc1)C1CCC(CNC(=O)COCCN(Cc2ccccc2)S(=O)(=O)c2ccccc2)CC1 (centres unmarked) [Example 342]	57	94

SMILES	μ (binding on the μ opioid receptor, % inhibition) (human μ opiate receptor) [%]	5-HT (inhibition of reuptake of serotonin, % inhibition) [1] [%]
CN(C)C(c1ccc(Cl)cc1)C1CCC(CNC(=O)COCCN(Cc2ccccc2)S(=O)(=O)c2ccccc2)CC1 (centres unmarked) [Example 343]	62	94
CN(C)C(c1ccc(F)cc1)C1CCC(NC(=O)COCC2CCCN2S(=O)(=O)c2ccc(Cl)c(Cl)c2)CC1 (centres unmarked) [Example 344]	64	97
COc1ccc(S(=O)(=O)N2CCCCC2COCC(=O)NCC2CCC(C(c3ccc(F)cc3)N(C)C)CC2)cc1 (centres unmarked) [Example 345]	64	92
COc1ccc(S(=O)(=O)N2CCCC2COCC(=O)NCCC2CCC(C(c3ccc(Cl)cc3)N(C)C)CC2)cc1 (centres unmarked) [Example 346]	63	95
CN(C)C(c1ccc(Cl)cc1)C1CCC(CCNC(=O)COCCN(C)S(=O)(=O)c2ccc(Cl)cc2)CC1 (centres unmarked) [Example 347]	63	93
COc1cc(C)c(S(=O)(=O)N(C)CCOCC(=O)NCC2CCC(C(c3ccc(Cl)cc3)N(C)C)CC2)c(C)c1 (centres unmarked) [Example 348]	61	83
COc1ccc(S(=O)(=O)N2CCCCC2COCC(=O)NCCC2CCC(C(c3ccc(F)cc3)N(C)C)CC2)cc1 (centres unmarked) [Example 349]	66	94
COc1ccc(S(=O)(=O)N2CCCCC2CCOCC(=O)NCC2CCC(C(c3ccc(F)cc3)N(C)C)CC2)cc1 (centres unmarked) [Example 350]	61	92
COc1ccc(S(=O)(=O)N2CCCC2COCC(=O)NCC2CCC(C(c3ccc(Cl)cc3)N(C)C)CC2)cc1 (centres unmarked) [Example 351]	63	97
COc1ccc(S(=O)(=O)N2CCCCC2COCC(=O)NC2CCC(C(c3cccc(F)c3)N(C)C)CC2)cc1OC (centres unmarked) [Example 352]	65	91
COc1cc(C)c(S(=O)(=O)N(C)CCOCC(=O)NCCC2CCC(C(c3ccc(F)cc3)N(C)C)CC2)c(C)c1C (centres unmarked) [Example 354]	61	90
CN(C)C(c1cccc(F)c1)C1CCC(CNC(=O)COC2CCN(S(=O)(=O)c3ccccc3)C2)CC1 (centres unmarked) [Example 355]	66	102
CN(C)C(c1ccc(F)cc1)C1CCC(NC(=O)COCCN(C)S(=O)(=O)c2ccc(Cl)cc2Cl)CC1 (centres unmarked) [Example 356]	55	84
CN(C)C(c1ccc(F)cc1)C1CCC(NC(=O)COCCN(C)S(=O)(=O)c2ccc(F)cc2)CC1 (centres unmarked) [Example 357]	57	86
COc1cc(C)c(S(=O)(=O)N(CCOCC(=O)NCCC2CCC(C(c3cccc(F)c3)N(C)C)CC2)Cc2ccccc2)c(C)c1 (centres unmarked) [Example 358]	71	92
CN(C)C(c1ccc(F)cc1)C1CCC(CNC(=O)COC2CCCCC2N(C)S(=O)(=O)c2ccc(Cl)c(Cl)c2)CC1 (centres unmarked) [Example 359]	60	90
CN(C)C(c1ccc(F)cc1)C1CCC(NC(=O)COCCN(C)S(=O)(=O)c2ccc(OC(F)(F)F)cc2)CC1 (centres unmarked) [Example 361]	59	87
Cc1ccc(S(=O)(=O)N(C)CCOCC(=O)NCC2CCC(C(c3ccc(F)cc3)N(C)C)CC2)cc1 (centres unmarked) [Example 362]	54	105
